Measurements published in paper PMC7157554, “Anti-Trypanosomal Proteasome Inhibitors Cure Hemolymphatic and Meningoencephalic Murine Infection Models of African Trypanosomiasis” (Tropical Medicine and Infectious Disease, 2020).
Where two headings read alike, the source gives them in different places.

Test system: T. b. brucei strain Lister 427 (bloodstream form)
Test: T. b. brucei growth inhibition assay (CellTiter-Glo, 48 h)
Type: cell-based, Trypanosoma brucei brucei
Description: The T. b. brucei strain Lister 427 (bloodstream form) parasites were continuously grown in complete HMI-9 medium supplemented with 10% Serum Plus and 10% heat-inactivated fetal bovine serum (FBS). All other parasite strains were cultured as described elsewhere.
For determination of 50% growth inhibition, all compounds were dissolved in DMSO, and 200 nL of threefold serially diluted compounds were added into solid-bottom 384-well white plates (Greiner Bio-One, Kremsmunster, Austria) by an Echo 555 acoustic liquid-handling system. Forty microliters of 10^4 cells/mL of T. b. brucei parasites was added into each well, and the plates were incubated in a 5% CO2 incubator at 37 °C for 48 h. Viability of parasites were determined by measuring intracellular ATP levels, using CellTiter-Glo (CTG) luminescent cell viability reagent (Promega, Madison, Wisconsin WI, USA). The EC50 values were determined by using GraphPad Prism software. Growth inhibition assays for all clinical isolates were carried out as described earlier. All experiments had two technical replicates and three biological replicates. Appropriate statistical tests were used for evaluating significance, and mean ± SEM is represented in the tables.

With Cc1nc(C)c(C(=O)Nc2ccc(F)c(-c3nc4ncc(-c5ccccn5)cn4n3)c2)o1 [GNF6702] the EC50 (Lister 427 bloodstream form, mean ± SEM, read-out: T. b. brucei EC50) was 70 ± 3 nM and the EC50 (Trypanosoma brucei, read-out: T. b. brucei EC50, Lister 427 bloodstream form, 48 h, mean ± SEM) was under 70 nM.
